In PubChem BioAssay AID328 (DTP/NCI, 2004) one finds T/C data, which are given here for 21 compounds.

The subject of this assay is BDF1 mice, P388 leukemia ip, median survival T/C. Briefly: NCI In Vivo Anticancer Drug Screen. Data for tumor model P388 Leukemia (intraperitoneal) in B6D2F1 (BDF1) mice. The following applies: endpoint: median survival time, higher = longer survival. Put shortly: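 Vehicle-dosed animals serve as the reference; survival of compound-dosed, tumour-implanted mice is divided by it.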

[1] abbreviates: dose: 6.25 mg/kg/injection, schedule: Q01DX009 (ip), vehicle: saline with Tween-80.
[2] abbreviates: dose: 12.5 mg/kg/injection, schedule: Q01DX009 (ip), vehicle: saline with Tween-80.
Setting [3] is: dose: 100.0 mg/kg/injection, schedule: Q01DX009 (ip), vehicle: saline.
The mark [4] stands for this setting: dose: 200.0 mg/kg/injection, schedule: Q01DX009 (ip), vehicle: saline.
Setting [5] is: dose: 400.0 mg/kg/injection, schedule: Q01DX009 (ip), vehicle: saline with Tween-80.
[6] abbreviates: dose: 100.0 mg/kg/injection, schedule: Q01DX001 (ip), vehicle: Klucel (hydroxypropylcellulose) (HPC).
The mark [7] stands for this setting: dose: 200.0 mg/kg/injection, schedule: Q01DX001 (ip), vehicle: Klucel (hydroxypropylcellulose) (HPC).
Setting [8] is: dose: 400.0 mg/kg/injection, schedule: Q01DX001 (ip), vehicle: Klucel (hydroxypropylcellulose) (HPC).
[9] abbreviates: dose: 25.0 mg/kg/injection, schedule: Q01DX009 (ip), vehicle: saline with Tween-80.
Setting [10] is: dose: 200.0 mg/kg/injection, schedule: Q04DX003 (ip), vehicle: Klucel (hydroxypropylcellulose) (HPC).
Where [11] appears, read: dose: 50.0 mg/kg/injection, schedule: Q01DX009 (ip), vehicle: saline with Tween-80.
The mark [12] stands for this setting: dose: 50.0 mg/kg/injection, schedule: Q01DX009 (ip), vehicle: saline.
[13] abbreviates: dose: 100.0 mg/kg/injection, schedule: Q01DX009 (ip), vehicle: saline with Tween-80.
Setting [14] is: dose: 200.0 mg/kg/injection, schedule: Q01DX009 (ip), vehicle: saline with Tween-80.

Several values for one entry are separate records, joined by “and”; a condition that tells them apart may be missing. Identical values can stand only once. Inconclusive results and toxic doses are left out.

Regarding `O=C(Nc1ccc(C2=NCCN2)cc1)c1ccc(C(=O)Nc2ccc(C3=NCCN3)cc2)c(F)c1`, the T/C is, setting by setting: (dose: 100.0 mg/kg/injection, schedule: Q04DX003 (ip), vehicle: saline with Tween-80) 172 % of control; (dose: 200.0 mg/kg/injection, schedule: Q04DX003 (ip), vehicle: saline with Tween-80) 213 % of control; (dose: 264.0 mg/kg/injection, schedule: Q04DX003 (ip), vehicle: saline with Tween-80) 226 % of control; (dose: 400.0 mg/kg/injection, schedule: Q04DX003 (ip), vehicle: saline with Tween-80) 250 % of control and 221 % of control; (dose: 600.0 mg/kg/injection, schedule: Q04DX003 (ip), vehicle: saline with Tween-80) 191 % of control.

Take `Oc1c(Cl)c(Cl)c(Cl)c2cccnc12`: the T/C reads like this: (dose: 3.13 mg/kg/injection, schedule: Q01DX009 (ip), vehicle: saline with Tween-80) 103 % of control; under setting [1], 106 % of control; under setting [2], 104 % of control.

Regarding `CCC(=O)NC`, the T/C is, setting by setting: under setting [3], 122 % of control; (dose: 100.0 mg/kg/injection, schedule: Q04DX003 (ip), vehicle: saline) 100 % of control; under setting [4], 100 % of control; (dose: 200.0 mg/kg/injection, schedule: Q04DX003 (ip), vehicle: saline) 104 % of control; (dose: 400.0 mg/kg/injection, schedule: Q01DX009 (ip), vehicle: saline) 109 % of control; (dose: 400.0 mg/kg/injection, schedule: Q04DX003 (ip), vehicle: saline) 100 % of control.

Consider `NC(CSC(c1ccccc1)(c1ccccc1)c1ccccc1)C(=O)NCC(=O)O` (stereo unspecified), for which the T/C is, setting by setting: (dose: 177.0 mg/kg/injection, schedule: Q01DX009 (ip), vehicle: saline with Tween-80) 111 % of control; under setting [5], 107 % of control.

As for `c1ccc(-c2[nH]c3ccccc3c2-c2ccccc2)cc1`, the T/C under setting [6] was 109 % of control, the T/C under setting [7] was 113 % of control and the T/C under setting [8] was 122 % of control.

With `CCC[CH2][Sn]1([CH2]CCC)[O]OC(C)(CC)[O]1` (stereo unspecified), the T/C reads like this: (dose: 0.69 mg/kg/injection, schedule: Q01DX009 (ip), vehicle: saline with Tween-80) 108 % of control; (dose: 1.04 mg/kg/injection, schedule: Q01DX009 (ip), vehicle: saline with Tween-80) 104 % of control; (dose: 1.56 mg/kg/injection, schedule: Q01DX009 (ip), vehicle: saline with Tween-80) 120 % of control; (dose: 2.35 mg/kg/injection, schedule: Q01DX009 (ip), vehicle: saline with Tween-80) 104 % of control.

Regarding `NCc1cn(C2OC(CO)C(O)C2O)c2ncnc(N)c12` (stereo unspecified), the T/C reads like this: (dose: 1.56 mg/kg/injection, schedule: Q01DX009 (ip), vehicle: saline) 91 % of control and 99 % of control; (dose: 3.12 mg/kg/injection, schedule: Q01DX009 (ip), vehicle: saline) 100 % of control and 123 % of control; (dose: 3.12 mg/kg/injection, schedule: Q04DX003 (ip), vehicle: saline) 95 % of control; (dose: 6.25 mg/kg/injection, schedule: Q04DX003 (ip), vehicle: saline) 91 % of control.

Regarding `CCOC(=O)C1=C(C)NC(C)=C(C(=O)OCC)C1c1cccc([N+](=O)[O-])c1`, the T/C runs as follows: (dose: 50.0 mg/kg/injection, schedule: Q01DX009 (ip), vehicle: Klucel (hydroxypropylcellulose) (HPC)) 105 % of control; (dose: 100.0 mg/kg/injection, schedule: Q01DX009 (ip), vehicle: Klucel (hydroxypropylcellulose) (HPC)) 100 % of control; (dose: 200.0 mg/kg/injection, schedule: Q01DX009 (ip), vehicle: Klucel (hydroxypropylcellulose) (HPC)) 90 % of control.

`Cc1ccc(NO)c(C)c1`: the T/C is 113 % of control (dose: 50.0 mg/kg/injection, schedule: Q01DX005 (ip), vehicle: saline with Tween-80) and 108 % of control (dose: 100.0 mg/kg/injection, schedule: Q01DX005 (ip), vehicle: saline with Tween-80).

Regarding `NC(=O)c1c(N)sc2c1CCCC2`, the T/C is, setting by setting: under setting [1], 86 % of control; under setting [2], 86 % of control; under setting [9], 95 % of control.

As for `CCOC(=O)CCCl`, the T/C is 95 % of control under setting [6]; 100 % of control (dose: 100.0 mg/kg/injection, schedule: Q04DX003 (ip), vehicle: Klucel (hydroxypropylcellulose) (HPC)); 104 % of control under setting [7]; 104 % of control under setting [10]; 91 % of control under setting [8]; 100 % of control (dose: 400.0 mg/kg/injection, schedule: Q04DX003 (ip), vehicle: Klucel (hydroxypropylcellulose) (HPC)).

In the case of `Cc1ccc(NC(=O)Oc2ccc(Cl)c(C)c2)c([N+](=O)[O-])c1`, the T/C is 108 % of control under setting [2], 102 % of control under setting [9] and 117 % of control under setting [11].

In the case of `CN=C1N[N+]2=C(C)CSCC2(C)S1` (stereo unspecified), the T/C was 100 % of control under setting [12], 100 % of control under setting [3] and 97 % of control under setting [4].

Take `ClC1=C(Cl)C2(Cl)C(Br)C(Br)C1(Cl)C2(Cl)Cl` (stereo unspecified): the T/C (dose: 25.0 mg/kg/injection, schedule: Q04DX003 (ip), vehicle: other) is 118 % of control; the T/C (dose: 50.0 mg/kg/injection, schedule: Q04DX003 (ip), vehicle: other) was 109 % of control; the T/C under setting [13] was 90 % of control; the T/C (dose: 100.0 mg/kg/injection, schedule: Q04DX003 (ip), vehicle: other) was 100 % of control and 104 % of control; the T/C under setting [14] is 100 % of control; the T/C under setting [10] was 90 % of control. Also, the T/C reads like this: under setting [5], 110 % of control; (dose: 400.0 mg/kg/injection, schedule: Q04DX003 (ip), vehicle: other) 100 % of control.

Turning to `O=C1O/C(=C2\OCc3ccccc32)c2ccccc21`, the T/C was 100 % of control under setting [9], 98 % of control under setting [11], 98 % of control under setting [13] and 96 % of control under setting [14].

Turning to `Cc1cc(O)c2c(c1)OC1(C)CCC3C(C)(C)CCCC34COC2C14` (stereo unspecified), the T/C by setting is: (dose: 50.0 mg/kg/injection, schedule: Q01DX009 (ip), vehicle: other) 109 % of control; (dose: 100.0 mg/kg/injection, schedule: Q01DX009 (ip), vehicle: other) 114 % of control; (dose: 200.0 mg/kg/injection, schedule: Q01DX009 (ip), vehicle: other) 92 % of control and 110 % of control; (dose: 400.0 mg/kg/injection, schedule: Q01DX009 (ip), vehicle: other) 101 % of control.

On to `CC1C=CCC(C)(C)C1` (stereo unspecified), for which the T/C under setting [9] is 104 % of control; the T/C under setting [11] was 100 % of control; the T/C under setting [13] was 100 % of control and 113 % of control.

`N#CCCN(C(=O)Nc1ccc(Cl)c(Cl)c1)C1CCCCC1`: the T/C is, setting by setting: under setting [11], 124 % of control; under setting [13], 104 % of control; under setting [14], 94 % of control; under setting [5], 97 % of control.

For the compound `Nc1[nH]c(=O)ncc1[N+](=O)[O-]`, the T/C under setting [11] was 102 % of control and the T/C under setting [13] was 118 % of control.

With `CCC(/C=C/C(C)C1CCC2C3CC=C4CC(O)CCC4(C)C3CCC12C)C(C)C` (stereo unspecified) (tested in a mixture with another compound), the T/C runs as follows: (dose: 25.0 mg/kg/injection, schedule: Q01DX009 (ip), vehicle: saline) 104 % of control; (dose: 25.0 mg/kg/injection, schedule: Q04DX003 (ip), vehicle: alcohol) 109 % of control; under setting [12], 95 % of control; (dose: 50.0 mg/kg/injection, schedule: Q04DX003 (ip), vehicle: alcohol) 95 % of control; under setting [3], 100 % of control; (dose: 100.0 mg/kg/injection, schedule: Q04DX003 (ip), vehicle: alcohol) 100 % of control.

Turning to `CCOS(=O)(=O)c1ccc([N+](=O)[O-])cc1[N+](=O)[O-]`, the T/C was 95 % of control (dose: 50.0 mg/kg/injection, schedule: Q01DX001 (ip), vehicle: saline); 104 % of control (dose: 100.0 mg/kg/injection, schedule: Q01DX001 (ip), vehicle: saline); 118 % of control (dose: 200.0 mg/kg/injection, schedule: Q01DX001 (ip), vehicle: saline).
